Results taken from US10829473B2, “Modulators of the cystic fibrosis transmembrane conductance regulator protein and methods of use” (AbbVie Overseas S.Á.R.L., priority 2017, dated 2020).
Read-outs that look alike come from different tables or passages of the source.

Target: T1, F508delCFTR (Homo sapiens, UniProt P13569, DEL508-508)
T1 construct: expressed in transfected cells; host or cells: CFBE41o- human lung derived epithelial cells (CFBE41o-F508delCFTR-HRP), doxycycline-inducible
Assay: Cell Surface Expression-Horse Radish Peroxidase (CSE-HRP) Assay;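 as to EC50 (with co-corrector): co-corrector chromenyl benzoic acid corrector at 2 or 3 µM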
Assay type: cell-based
Conditions: for Maximum % activity (with co-corrector) / Emax: maximum at any tested concentration; for Emax: read-out: Maximum % activity (without co-corrector)
Experimental: A cellular assay for measuring the F508delCFTR cell surface expression after correction with test compounds either without or with a co-corrector (2 μM of 3-[(2R,4R)-4-({[1-(2,2-difluoro-1,3-benzodioxol-5-yl)cyclopropyl]carbonyl}amino)-7-methoxy-3,4-dihydro-2H-chromen-2-yl]benzoic acid), was developed in human lung derived epithelial cell line (CFBE4lo−) (Veit G et al, (2012) Mol Biol Cell. 23(21): 4188-4202). The development was achieved by expressing the F508delCFTR mutation along with a horseradish peroxidase (HRP) in the fourth exofacial loop, and then measuring the HRP activity using luminescence readout from these cells, CFBE410-F508delCFTR-HRP, that were incubated overnight with the test corrector compounds, either without or with the co-corrector. For this primary assay, the CFBE410-F508delCFTR-HRP cells were plated in 384-well plates (Greiner Bio-one; Cat 781080) at 4,000 cells/well along with 0.5 μg/mL doxycycline to induce the F508delCFTR-HRP expression and further incubated at 37° C., 5% CO2 for 68-72 hours. The test compounds were then added either without or with a co-corrector at the required concentrations and further incubated for 18-24 hours at 33° C. The highest concentration tested was 20 μM or 30 μM (GI-1 to GIII-36) with an 8-point concentration response curve using a 3-fold dilution in both the test compound without or with the co-corrector. Three replicate plates were run to determine one EC50. All plates contained negative controls (dimethyl sulfoxide, DMSO) and positive control (2 μM or 3 μM (GI-1 to GIII-36) of 3-[(2R,4R)-4-({[1-(2,2-difluoro-1,3-benzodioxol-5-yl)cyclopropyl]carbonyl}amino)-7-methoxy-3,4-dihydro-2H-chromen-2-yl]benzoic acid) as well as on-plate concentration response of the positive control. Post incubation, the plates were washed 5× times with Dulbecco's phosphate buffered saline (DPBS), followed by the addition of the HRP substrate, luminol (50 4), and measuring the HRP activity using luminescence readout on EnVision® Multilabel Plate Reader (Perkin Elmer; product number 2104-0010). The raw counts from the experiment were analyzed using Accelrys® Assay Explorer v3.3.
Z′ greater than 0.5 was used as passing quality control criteria for the plates.
The Z′ is defined as: 1−[3*SDPositve Control+3*SDNegative Control/Absolute(MeanPositive Control−MeanNegative Control)] wherein “SD” is standard deviation.
The % activity measured at each of the 8 test concentrations of the test compound added either without or with a co-corrector (2 μM or 3 μM (GI-1 to GIII-36) of 3-[(2R,4R)-4-({[1-(2,2-difluoro-1,3-benzodioxol-5-yl)cyclopropyl]carbonyl}amino)-7-methoxy-3,4-dihydro-2H-chromen-2-yl]benzoic acid) was normalized to the on-plate positive control using the following formulae: % activity (Test compound without co-corrector)=[(test compound without co-corrector response DMSO response)/(positive control response DMSO response)]*100 % activity (Test compound with co-corrector)=[(test compound with co-corrector response DMSO response)/(positive control response DMSO response)]*100
The maximum % activity achieved for the test compound either without or with a co-corrector at any tested concentration is presented in Table 6 along with the respective EC50's calculated using the following general sigmoidal curve with variable Hill slope equation (described as Model 42 in the Accelrys® Assay Explorer v3.3 software): y=(a−d)/(1+(x/c)b)+d
General sigmoidal curve with concentration, response, top, bottom, EC50 and Hill slope. This model describes a sigmoidal curve with an adjustable baseline, a. The equation can be used to fit curves where response is either increasing or decreasing with respect to the independent variable, “x”.
“x” is a concentration of drug under test.
“a” is the maximum response, and “d” is the minimum response
“c” is the inflection point (EGO for the curve. That is, “y” is halfway between the lower and upper asymptotes when x=c.
“b” is the slope-factor or Hill coefficient. […]

[1] = test compound with co-corrector
[2] = test compound with co-corrector, read-out: EC50 (with co-corrector)
[3] = test compound without co-corrector
[4] = test compound without co-corrector, read-out: EC50 (without co-corrector)

T1 sequence (P13569 with tags, fused parts or gaps DEL508-508): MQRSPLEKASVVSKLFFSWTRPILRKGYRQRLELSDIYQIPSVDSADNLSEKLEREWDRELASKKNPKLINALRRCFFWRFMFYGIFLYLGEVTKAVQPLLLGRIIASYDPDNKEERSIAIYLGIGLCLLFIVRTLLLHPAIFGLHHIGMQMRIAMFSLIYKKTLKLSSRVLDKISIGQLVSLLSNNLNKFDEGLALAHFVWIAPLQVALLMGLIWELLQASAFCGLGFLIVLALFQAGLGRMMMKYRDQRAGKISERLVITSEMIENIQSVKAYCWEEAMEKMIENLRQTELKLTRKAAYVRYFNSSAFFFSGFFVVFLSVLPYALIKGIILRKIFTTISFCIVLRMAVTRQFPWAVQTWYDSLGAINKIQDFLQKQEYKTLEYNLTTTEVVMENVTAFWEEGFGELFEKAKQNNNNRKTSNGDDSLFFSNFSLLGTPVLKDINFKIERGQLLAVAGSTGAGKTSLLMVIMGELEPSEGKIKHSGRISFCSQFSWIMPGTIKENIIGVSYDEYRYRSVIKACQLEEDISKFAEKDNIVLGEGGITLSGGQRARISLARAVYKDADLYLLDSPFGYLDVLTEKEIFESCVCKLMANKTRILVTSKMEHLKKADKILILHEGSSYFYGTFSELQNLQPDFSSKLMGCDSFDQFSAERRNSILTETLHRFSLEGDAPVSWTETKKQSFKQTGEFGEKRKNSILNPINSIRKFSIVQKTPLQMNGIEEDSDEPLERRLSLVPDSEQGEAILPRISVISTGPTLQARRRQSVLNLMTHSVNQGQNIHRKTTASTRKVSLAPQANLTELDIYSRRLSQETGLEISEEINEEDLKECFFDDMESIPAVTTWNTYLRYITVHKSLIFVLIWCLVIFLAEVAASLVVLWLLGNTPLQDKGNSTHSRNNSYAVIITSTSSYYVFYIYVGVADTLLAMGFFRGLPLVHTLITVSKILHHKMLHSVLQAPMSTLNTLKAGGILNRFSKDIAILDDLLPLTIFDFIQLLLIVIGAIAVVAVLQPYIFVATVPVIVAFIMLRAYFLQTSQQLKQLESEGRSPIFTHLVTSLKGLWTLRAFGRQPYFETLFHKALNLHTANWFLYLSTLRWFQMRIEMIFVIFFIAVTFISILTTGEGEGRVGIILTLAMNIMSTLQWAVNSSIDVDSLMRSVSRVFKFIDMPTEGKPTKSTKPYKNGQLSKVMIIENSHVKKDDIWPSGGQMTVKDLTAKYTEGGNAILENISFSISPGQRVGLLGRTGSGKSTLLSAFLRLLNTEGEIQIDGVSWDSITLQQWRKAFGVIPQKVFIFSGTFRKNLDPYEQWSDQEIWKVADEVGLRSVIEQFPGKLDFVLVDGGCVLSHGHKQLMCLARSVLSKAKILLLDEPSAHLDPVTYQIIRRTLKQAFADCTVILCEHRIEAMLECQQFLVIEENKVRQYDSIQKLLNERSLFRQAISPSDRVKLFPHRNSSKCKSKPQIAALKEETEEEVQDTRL

For `CCc1ccc(OC(C)C)c(C2(C(=O)NS(=O)(=O)c3cccc4nc(C)ccc34)CC2)n1` [Example GI-54, 1-{6-ethyl-3-[(propan-2-yl)oxy]pyridin-2-yl}-N-(2-methylquinoline-5-sulfonyl)cyclopropane-1-carboxamide], the “Maximum % activity (with co-corrector)” value [1] was “+++ (≥350)”, the EC50 [2] was 3 to 10 µM and the Emax [3] was over 150%. For the same compound, the EC50 [4] was 3 to 10 µM.
For `CCc1ccc(OC(C)C)c(C2(C(=O)NS(=O)(=O)c3cccc4ncccc34)CC2)n1` [Example GI-55, 1-{6-ethyl-3-[(propan-2-yl)oxy]pyridin-2-yl}-N-(quinoline-5-sulfonyl)cyclopropane-1-carboxamide], the “Maximum % activity (with co-corrector)” value [1] was “+++ (≥350)”, the EC50 [2] was under 3 µM and the Emax [3] was over 150%. For the same compound, the EC50 [4] was 3 to 10 µM.
With `CCc1ccc(OC(C)C)c(C2(C(=O)NS(=O)(=O)c3cccc4[nH]ccc34)CC2)n1` [Example GI-56, 1-{6-ethyl-3-[(propan-2-yl)oxy]pyridin-2-yl}-N-(1H-indole-4-sulfonyl)cyclopropane-1-carboxamide] the “Maximum % activity (with co-corrector)” value [1] was “+++ (≥350)”, the EC50 [2] was under 3 µM and the Emax [3] was over 150%. It also gave an EC50 [4] of 3 to 10 µM.
With `COC1CCN(c2ncc(C3CCC3)cc2C2(C(=O)NS(=O)(=O)c3cccc4[nH]ccc34)CC2)CC1` [Example GI-57, 1-[5-cyclobutyl-2-(4-methoxypiperidin-1-yl)pyridin-3-yl]-N-(1H-indole-4-sulfonyl)cyclopropane-1-carboxamide] the “Maximum % activity (with co-corrector)” value [1] was “+++ (≥350)”, the EC50 [2] was under 3 µM and the Emax [3] was over 150%. For the same compound, the EC50 [4] was under 3 µM.
`Cc1cnc(OC(C)C)c(C2(C(=O)NS(=O)(=O)c3cccc4nc(C)ccc34)CC2)c1` [Example GI-58, 1-{5-methyl-2-[(propan-2-yl)oxy]pyridin-3-yl}-N-(2-methylquinoline-5-sulfonyl)cyclopropane-1-carboxamide] was tested, and the “Maximum % activity (with co-corrector)” value [1] was “+++ (≥350)”, the EC50 [2] was under 3 µM and the Emax [3] was over 150%. The EC50 [4] was under 3 µM.
In the case of `Cc1cnc(OC(C)C)c(C2(C(=O)NS(=O)(=O)c3cccc4[nH]ccc34)CC2)c1` [Example GI-59, N-(1H-indole-4-sulfonyl)-1-{5-methyl-2-[(propan-2-yl)oxy]pyridin-3-yl}cyclopropane-1-carboxamide], the “Maximum % activity (with co-corrector)” value [1] is reported as “+++ (≥350)”, the EC50 [2] is reported as under 3 µM and the Emax [3] is reported as over 150%. For the same compound, the EC50 [4] was 3 to 10 µM.
`Cc1ccc2c(S(=O)(=O)NC(=O)C3(c4cc(C5CC5)cnc4OC(C)C)CC3)cccc2n1` [Example GI-60, 1-{5-cyclopropyl-2-[(propan-2-yl)oxy]pyridin-3-yl}-N-(2-methylquinoline-5-sulfonyl)cyclopropane-1-carboxamide] was tested, and the “Maximum % activity (with co-corrector)” value [1] was “+++ (≥350)”, the EC50 [2] was under 3 µM and the Emax [3] was over 150%. For the same compound, the EC50 [4] was under 3 µM.
`CC(C)Oc1ncc(C2CC2)cc1C1(C(=O)NS(=O)(=O)c2cccc3[nH]ccc23)CC1` [Example GI-61, 1-{5-cyclopropyl-2-[(propan-2-yl)oxy]pyridin-3-yl}-N-(1H-indole-4-sulfonyl)cyclopropane-1-carboxamide] was tested, and the “Maximum % activity (with co-corrector)” value [1] was “+++ (≥350)”, the EC50 [2] was under 3 µM and the Emax [3] was over 150%. The EC50 [4] was under 3 µM.
With `CC(C)Oc1ncc(N2CCCC2)cc1C1(C(=O)NS(=O)(=O)c2cccc3ncccc23)CC1` [Example GI-62, 1-{2-[(propan-2-yl)oxy]-5-(pyrrolidin-1-yl)pyridin-3-yl}-N-(quinoline-5-sulfonyl)cyclopropane-1-carboxamide] the “Maximum % activity (with co-corrector)” value [1] was “+++ (≥350)”, the EC50 [2] was under 3 µM and the Emax [3] was over 150%. For the same compound, the EC50 [4] was under 3 µM.
`Cc1ccc2c(S(=O)(=O)NC(=O)C3(c4cc(N5CCCC5)cnc4OC(C)C)CC3)cccc2n1` [Example GI-63, N-(2-methylquinoline-5-sulfonyl)-1-{2-[(propan-2-yl)oxy]-5-(pyrrolidin-1-yl)pyridin-3-yl}cyclopropane-1-carboxamide] was tested, and the “Maximum % activity (with co-corrector)” value [1] was “+++ (≥350)”, the EC50 [2] was under 3 µM and the Emax [3] was over 150%. It also gave an EC50 [4] of under 3 µM.
In the case of `CC(C)Oc1ncc(N2CCCC2)cc1C1(C(=O)NS(=O)(=O)c2cccc3[nH]ccc23)CC1` [Example GI-64, N-(1H-indole-4-sulfonyl)-1-{2-[(propan-2-yl)oxy]-5-(pyrrolidin-1-yl)pyridin-3-yl}cyclopropane-1-carboxamide], the “Maximum % activity (with co-corrector)” value [1] is reported as “+++ (≥350)”, the EC50 [2] is reported as under 3 µM and the Emax [3] is reported as over 150%. For the same compound, the EC50 [4] was under 3 µM.
`CC(C)Oc1cnc(OC(C)C)c(C2(C(=O)NS(=O)(=O)c3cccc4ncccc34)CC2)c1` [Example GI-65, 1-{2,5-bis[(propan-2-yl)oxy]pyridin-3-yl}-N-(quinoline-5-sulfonyl)cyclopropane-1-carboxamide] was tested, and the “Maximum % activity (with co-corrector)” value [1] was “+++ (≥350)”, the EC50 [2] was under 3 µM and the Emax [3] was over 150%. For the same compound, the EC50 [4] was under 3 µM.
`CC(C)Oc1cnc(OC(C)C)c(C2(C(=O)NS(=O)(=O)c3cccc4[nH]ccc34)CC2)c1` [Example GI-66, 1-{2,5-bis[(propan-2-yl)oxy]pyridin-3-yl}-N-(1H-indole-4-sulfonyl)cyclopropane-1-carboxamide] was tested, and the “Maximum % activity (with co-corrector)” value [1] was “+++ (≥350)”, the EC50 [2] was under 3 µM and the Emax [3] was over 150%. It also gave an EC50 [4] of under 3 µM.
With `Cc1ccc2c(S(=O)(=O)NC(=O)C3(c4cc(OC(C)C)cnc4OC(C)C)CC3)cccc2n1` [Example GI-67, 1-{2,5-bis[(propan-2-yl)oxy]pyridin-3-yl}-N-(2-methylquinoline-5-sulfonyl)cyclopropane-1-carboxamide] the “Maximum % activity (with co-corrector)” value [1] was “+++ (≥350)”, the EC50 [2] was under 3 µM and the Emax [3] was over 150%. It also gave an EC50 [4] of 3 to 10 µM.
With `CC(C)COc1ncc(N2CCCC2)cc1C1(C(=O)NS(=O)(=O)c2cccc3ncccc23)CC1` [Example GI-68, 1-[2-(2-methylpropoxy)-5-(pyrrolidin-1-yl)pyridin-3-yl]-N-(quinoline-5-sulfonyl)cyclopropane-1-carboxamide] the “Maximum % activity (with co-corrector)” value [1] was “+++ (≥350)”, the EC50 [2] was under 3 µM and the Emax [3] was over 150%. The EC50 [4] was under 3 µM.
With `Cc1ccc2c(S(=O)(=O)NC(=O)C3(c4cc(N5CCCC5)cnc4OCC(C)C)CC3)cccc2n1` [Example GI-69, 1-[2-(2-methylpropoxy)-5-(pyrrolidin-1-yl)pyridin-3-yl]-N-(2-methylquinoline-5-sulfonyl)cyclopropane-1-carboxamide] the “Maximum % activity (with co-corrector)” value [1] was “+++ (≥350)”, the EC50 [2] was under 3 µM and the Emax [3] was over 150%. For the same compound, the EC50 [4] was under 3 µM.
For `CC(C)COc1ncc(N2CCCC2)cc1C1(C(=O)NS(=O)(=O)c2cccc3[nH]ccc23)CC1` [Example GI-70, N-(1H-indole-4-sulfonyl)-1-[2-(2-methylpropoxy)-5-(pyrrolidin-1-yl)pyridin-3-yl]cyclopropane-1-carboxamide], the “Maximum % activity (with co-corrector)” value [1] was “+++ (≥350)”, the EC50 [2] was under 3 µM and the Emax [3] was over 150%. The EC50 [4] was under 3 µM.
For `CC(C)Oc1ncc(N(C)C)cc1C1(C(=O)NS(=O)(=O)c2cccc3ncccc23)CC1` [Example GI-71, 1-{5-(dimethylamino)-2-[(propan-2-yl)oxy]pyridin-3-yl}-N-(quinoline-5-sulfonyl)cyclopropane-1-carboxamide], the “Maximum % activity (with co-corrector)” value [1] was “+++ (≥350)”, the EC50 [2] was under 3 µM and the Emax [3] was over 150%. It also gave an EC50 [4] of 3 to 10 µM.
